Data published in ChEMBL document CHEMBL1131743, “Structure-activity relationship for a series of 2-substituted 1,2,3,4-tetrahydro-9H-pyrido[3,4-b]indoles: potent subtype-selective inhibitors of N-methyl-D-aspartate (NMDA) receptors” (Bioorg Med Chem Lett, 1999).
pIC50: −log10 of the molar value.

Assays:
[1] = Antagonist activity against rat 1A/2C subtype of N-methyl-D-aspartate (NMDA) receptor was determined by electrical assay in xenopus oocytes.; format: functional, cell-based; conditions: Oocyte
[2] = molecular target: Glutamate NMDA receptor; Grin1/Grin2b (Rattus norvegicus, UniProt P35439+Q00960); assay: Antagonist activity against rat 1A/2B subtype of N-methyl-D-aspartate (NMDA) receptor in xenopus oocytes.; format: functional, cell-based, Oocyte
Sequence of Glutamate NMDA receptor; Grin1/Grin2b (Q00960 whole entry, other chains not shown): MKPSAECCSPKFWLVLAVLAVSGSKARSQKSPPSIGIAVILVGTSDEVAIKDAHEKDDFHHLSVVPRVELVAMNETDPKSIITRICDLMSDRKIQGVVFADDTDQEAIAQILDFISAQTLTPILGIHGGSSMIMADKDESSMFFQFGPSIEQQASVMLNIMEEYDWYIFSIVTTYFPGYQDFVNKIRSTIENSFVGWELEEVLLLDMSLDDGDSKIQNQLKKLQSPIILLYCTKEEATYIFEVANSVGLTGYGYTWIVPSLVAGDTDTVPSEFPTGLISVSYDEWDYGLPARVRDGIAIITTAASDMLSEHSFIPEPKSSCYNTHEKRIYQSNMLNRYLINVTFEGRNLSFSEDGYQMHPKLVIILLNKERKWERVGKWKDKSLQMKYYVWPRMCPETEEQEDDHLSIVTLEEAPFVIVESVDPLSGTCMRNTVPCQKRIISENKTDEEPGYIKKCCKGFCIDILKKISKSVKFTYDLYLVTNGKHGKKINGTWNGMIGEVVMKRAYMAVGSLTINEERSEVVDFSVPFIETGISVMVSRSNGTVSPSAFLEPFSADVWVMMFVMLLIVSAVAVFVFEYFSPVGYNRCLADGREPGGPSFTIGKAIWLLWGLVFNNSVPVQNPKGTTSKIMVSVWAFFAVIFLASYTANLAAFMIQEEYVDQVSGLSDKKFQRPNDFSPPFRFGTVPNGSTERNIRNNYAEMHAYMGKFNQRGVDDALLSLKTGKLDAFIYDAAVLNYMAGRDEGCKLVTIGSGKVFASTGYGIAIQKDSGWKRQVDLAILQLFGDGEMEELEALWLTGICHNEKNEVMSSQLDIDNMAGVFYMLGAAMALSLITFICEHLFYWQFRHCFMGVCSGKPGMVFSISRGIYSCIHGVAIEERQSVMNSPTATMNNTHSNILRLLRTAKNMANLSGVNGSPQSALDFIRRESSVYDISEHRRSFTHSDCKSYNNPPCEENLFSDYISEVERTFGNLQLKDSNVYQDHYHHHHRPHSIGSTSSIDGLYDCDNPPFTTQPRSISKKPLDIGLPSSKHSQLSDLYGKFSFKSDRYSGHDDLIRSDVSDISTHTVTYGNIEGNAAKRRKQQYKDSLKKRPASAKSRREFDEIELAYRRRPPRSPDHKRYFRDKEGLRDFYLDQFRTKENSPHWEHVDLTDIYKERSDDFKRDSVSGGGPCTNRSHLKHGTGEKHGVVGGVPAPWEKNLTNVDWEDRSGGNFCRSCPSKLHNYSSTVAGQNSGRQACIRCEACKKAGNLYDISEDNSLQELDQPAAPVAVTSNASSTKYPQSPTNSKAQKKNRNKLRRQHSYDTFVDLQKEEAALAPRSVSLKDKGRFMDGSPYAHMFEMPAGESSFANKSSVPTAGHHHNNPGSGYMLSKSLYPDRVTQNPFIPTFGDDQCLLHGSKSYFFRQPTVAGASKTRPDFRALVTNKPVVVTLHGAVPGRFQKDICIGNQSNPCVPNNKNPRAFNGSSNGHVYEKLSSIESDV

[3] = Antagonist activity against rat 1A/2A subtype of N-methyl-D-aspartate (NMDA) receptor was determined by electrical assay in xenopus oocytes.; format: functional, cell-based; conditions: Oocyte

Compound	pIC50 [1]	pIC50 [2]	pIC50 [3]
Oc1ccc(CCCCN2CCc3c([nH]c4ccccc34)C2)cc1	3.82	6.25	4.24
c1ccc(CCCCN2CCc3c([nH]c4ccccc34)C2)cc1	4.19	5.48	4.17
Oc1ccc(CCN2CCc3c([nH]c4ccccc34)C2)cc1	3.85	5.42	4.13
COc1ccc2[nH]c3c(c2c1)CCN(CCCCc1ccccc1)C3	3.88	4.85	3.96
Oc1ccc(CCCNCCCCc2ccccc2)cc1	–	7.70	–
Oc1ccc2[nH]c3c(c2c1)CCN(CCCCc1ccccc1)C3	3.74	6.85	4.01
Oc1ccc2c3c([nH]c2c1)CN(CCCCc1ccccc1)CC3	4.17	7.30	4.24
Oc1ccc(CCCN2CCc3c([nH]c4ccccc34)C2)cc1	3.77	7.06	4.38
